Measurements: ChEMBL document CHEMBL5465560, “Selectivity Literature for EUbOPEN Chemogenomic Library” (2024)

Tests used:
[1] = target: T1, Mitogen-activated protein kinase kinase kinase 3 (Homo sapiens) (UniProt Q99759); assay: Selectivity interaction (KinomeScan (DiscoverX)) EUB0000666a MAP3K3; details: at 10 µM
T1 sequence (whole entry): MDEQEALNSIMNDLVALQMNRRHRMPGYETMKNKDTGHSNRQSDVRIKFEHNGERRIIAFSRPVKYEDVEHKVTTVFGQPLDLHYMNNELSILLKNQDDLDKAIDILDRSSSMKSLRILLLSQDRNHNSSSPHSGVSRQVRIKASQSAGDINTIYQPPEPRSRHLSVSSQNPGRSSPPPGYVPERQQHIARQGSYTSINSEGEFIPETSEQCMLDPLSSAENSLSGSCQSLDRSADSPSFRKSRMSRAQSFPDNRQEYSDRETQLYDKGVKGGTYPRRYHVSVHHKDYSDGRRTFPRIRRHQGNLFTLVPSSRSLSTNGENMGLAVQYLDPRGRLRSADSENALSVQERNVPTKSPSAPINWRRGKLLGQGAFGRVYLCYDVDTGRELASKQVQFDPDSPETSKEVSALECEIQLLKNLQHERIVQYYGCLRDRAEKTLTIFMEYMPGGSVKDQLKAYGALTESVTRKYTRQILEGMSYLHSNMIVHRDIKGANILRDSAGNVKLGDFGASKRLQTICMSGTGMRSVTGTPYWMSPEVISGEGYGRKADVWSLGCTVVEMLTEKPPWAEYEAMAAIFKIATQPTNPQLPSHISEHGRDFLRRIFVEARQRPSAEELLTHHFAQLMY

[2] = target: T2, Ephrin type-A receptor 1 (Homo sapiens) (UniProt P21709); assay: Selectivity interaction (KinomeScan (DiscoverX)) EUB0000229b EPHA1; details: at 10 µM
T2 sequence (whole entry): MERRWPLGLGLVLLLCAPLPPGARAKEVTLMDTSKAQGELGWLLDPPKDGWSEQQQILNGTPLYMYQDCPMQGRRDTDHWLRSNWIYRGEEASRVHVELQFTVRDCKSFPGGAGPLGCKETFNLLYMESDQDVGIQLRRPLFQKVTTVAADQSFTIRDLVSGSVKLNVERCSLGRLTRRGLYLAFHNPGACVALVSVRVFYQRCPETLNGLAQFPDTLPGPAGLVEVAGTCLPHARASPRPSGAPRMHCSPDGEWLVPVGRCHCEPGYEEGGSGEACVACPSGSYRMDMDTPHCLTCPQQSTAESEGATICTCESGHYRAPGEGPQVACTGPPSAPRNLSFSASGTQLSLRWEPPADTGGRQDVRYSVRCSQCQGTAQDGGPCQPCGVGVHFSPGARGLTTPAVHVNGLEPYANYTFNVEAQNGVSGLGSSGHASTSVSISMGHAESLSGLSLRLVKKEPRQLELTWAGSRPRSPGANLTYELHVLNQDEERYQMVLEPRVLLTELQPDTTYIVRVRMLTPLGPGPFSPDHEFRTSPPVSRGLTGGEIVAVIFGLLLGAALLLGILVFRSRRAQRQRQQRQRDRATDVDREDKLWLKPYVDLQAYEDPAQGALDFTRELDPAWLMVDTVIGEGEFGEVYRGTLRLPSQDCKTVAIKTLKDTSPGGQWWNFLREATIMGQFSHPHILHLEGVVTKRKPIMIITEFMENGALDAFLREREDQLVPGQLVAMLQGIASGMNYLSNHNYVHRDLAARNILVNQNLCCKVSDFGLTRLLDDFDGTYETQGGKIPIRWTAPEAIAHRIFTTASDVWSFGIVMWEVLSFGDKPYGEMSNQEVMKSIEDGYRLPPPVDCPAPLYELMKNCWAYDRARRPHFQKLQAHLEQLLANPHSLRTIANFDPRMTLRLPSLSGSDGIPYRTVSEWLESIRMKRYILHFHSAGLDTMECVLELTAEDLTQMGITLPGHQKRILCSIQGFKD

[3] = target: T3, Protein kinase C iota type (Homo sapiens) (UniProt P41743); assay: Selectivity interaction (KinomeScan (DiscoverX)) EUB0001079a PRKCI; details: at 1 µM
T3 sequence (whole entry): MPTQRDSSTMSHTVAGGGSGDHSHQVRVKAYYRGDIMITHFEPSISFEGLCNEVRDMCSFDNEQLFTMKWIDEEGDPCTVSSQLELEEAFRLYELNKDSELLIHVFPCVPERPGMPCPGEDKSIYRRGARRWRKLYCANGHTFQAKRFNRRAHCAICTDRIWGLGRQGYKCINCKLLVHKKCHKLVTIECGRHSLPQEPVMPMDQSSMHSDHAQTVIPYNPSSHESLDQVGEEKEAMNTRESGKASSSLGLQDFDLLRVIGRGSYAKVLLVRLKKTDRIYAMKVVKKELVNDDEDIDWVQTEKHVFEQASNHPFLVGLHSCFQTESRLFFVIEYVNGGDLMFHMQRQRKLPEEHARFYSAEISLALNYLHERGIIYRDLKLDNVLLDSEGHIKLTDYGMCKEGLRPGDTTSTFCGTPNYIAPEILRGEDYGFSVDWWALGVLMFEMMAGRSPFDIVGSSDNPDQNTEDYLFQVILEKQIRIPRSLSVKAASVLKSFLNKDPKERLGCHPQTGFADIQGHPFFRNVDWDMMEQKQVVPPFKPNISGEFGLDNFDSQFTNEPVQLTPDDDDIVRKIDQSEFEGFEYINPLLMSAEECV

[4] = target: Casein kinase I isoform delta (Homo sapiens, UniProt P48730); assay: Selectivity interaction (Kinase panel (DSF assay)) EUB0001559a CSNK1D
Chain of Casein kinase I isoform delta (P48730 whole entry, looked up, canonical isoform): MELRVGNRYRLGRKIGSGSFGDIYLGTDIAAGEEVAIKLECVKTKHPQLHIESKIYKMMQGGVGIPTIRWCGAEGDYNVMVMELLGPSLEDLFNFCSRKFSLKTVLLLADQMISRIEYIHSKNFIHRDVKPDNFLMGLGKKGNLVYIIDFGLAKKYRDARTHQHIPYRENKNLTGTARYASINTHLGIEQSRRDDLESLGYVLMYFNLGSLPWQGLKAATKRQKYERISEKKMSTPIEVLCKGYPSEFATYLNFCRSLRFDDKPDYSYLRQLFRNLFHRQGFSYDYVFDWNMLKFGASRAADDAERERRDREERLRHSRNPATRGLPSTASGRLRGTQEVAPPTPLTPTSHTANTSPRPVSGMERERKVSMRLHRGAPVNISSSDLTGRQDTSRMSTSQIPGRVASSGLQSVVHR

[5] = target: T4, Activin receptor type-1 (Homo sapiens) (UniProt Q04771); assay: Selectivity interaction (KinomeScan (DiscoverX)) EUB0000618a ACVR1; details: at 10 µM
T4 sequence (whole entry): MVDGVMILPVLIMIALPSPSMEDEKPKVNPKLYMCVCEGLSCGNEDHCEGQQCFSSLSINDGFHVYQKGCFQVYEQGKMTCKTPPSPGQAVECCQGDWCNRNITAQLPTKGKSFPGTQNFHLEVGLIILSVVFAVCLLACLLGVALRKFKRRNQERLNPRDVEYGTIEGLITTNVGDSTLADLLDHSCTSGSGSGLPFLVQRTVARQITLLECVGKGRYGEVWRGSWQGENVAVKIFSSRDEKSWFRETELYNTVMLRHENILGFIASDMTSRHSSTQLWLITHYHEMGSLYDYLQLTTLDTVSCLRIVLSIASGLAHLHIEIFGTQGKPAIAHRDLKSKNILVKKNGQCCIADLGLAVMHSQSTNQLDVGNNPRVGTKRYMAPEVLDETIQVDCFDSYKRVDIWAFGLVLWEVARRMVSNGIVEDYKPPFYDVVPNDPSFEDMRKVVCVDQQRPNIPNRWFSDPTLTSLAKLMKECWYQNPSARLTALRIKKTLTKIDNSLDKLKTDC

[6] = target: Activin receptor type-2A (Homo sapiens) (UniProt P27037); details: at 10 µM
Chain of Activin receptor type-2A (Homo sapiens) (P27037 whole entry): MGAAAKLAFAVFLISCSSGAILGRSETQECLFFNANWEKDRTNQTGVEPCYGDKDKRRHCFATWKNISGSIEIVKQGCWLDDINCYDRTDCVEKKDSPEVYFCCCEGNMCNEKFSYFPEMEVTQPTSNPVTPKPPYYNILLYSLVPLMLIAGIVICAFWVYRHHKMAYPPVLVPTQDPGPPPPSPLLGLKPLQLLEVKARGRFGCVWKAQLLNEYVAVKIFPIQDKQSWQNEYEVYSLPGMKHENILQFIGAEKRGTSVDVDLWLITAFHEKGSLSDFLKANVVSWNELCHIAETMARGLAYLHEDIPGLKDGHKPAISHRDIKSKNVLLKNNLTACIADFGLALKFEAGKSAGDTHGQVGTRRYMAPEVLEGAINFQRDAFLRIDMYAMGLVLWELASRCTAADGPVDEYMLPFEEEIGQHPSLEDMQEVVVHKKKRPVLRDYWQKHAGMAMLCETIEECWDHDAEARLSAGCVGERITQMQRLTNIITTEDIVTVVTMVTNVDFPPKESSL

[7] = target: Atypical kinase COQ8A, mitochondrial (Homo sapiens, UniProt Q8NI60); assay: Selectivity interaction (KinomeScan (DiscoverX)) EUB0000655a ADCK3; details: at 10 µM
Chain of Atypical kinase COQ8A, mitochondrial (Q8NI60 163-647 limits assumed): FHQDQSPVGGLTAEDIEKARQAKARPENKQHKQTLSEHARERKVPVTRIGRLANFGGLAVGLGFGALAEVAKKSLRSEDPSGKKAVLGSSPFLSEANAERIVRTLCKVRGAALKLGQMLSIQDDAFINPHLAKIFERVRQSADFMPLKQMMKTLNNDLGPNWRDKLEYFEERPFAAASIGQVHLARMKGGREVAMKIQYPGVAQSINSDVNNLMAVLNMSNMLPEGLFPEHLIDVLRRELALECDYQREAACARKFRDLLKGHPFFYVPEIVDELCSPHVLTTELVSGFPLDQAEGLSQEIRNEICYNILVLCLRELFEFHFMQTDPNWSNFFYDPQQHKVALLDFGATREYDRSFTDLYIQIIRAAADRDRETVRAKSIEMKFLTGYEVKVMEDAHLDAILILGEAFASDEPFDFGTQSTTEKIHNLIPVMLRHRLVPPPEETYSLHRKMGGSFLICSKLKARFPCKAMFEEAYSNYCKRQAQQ

Question: How did the % of control [1] turn out when `O=C(NOC[C@H](O)CO)c1ccc(F)c(F)c1Nc1ccc(I)cc1F` was run?
Answer: 98%

Question: Which % binding [2] does the source give for `COc1cc(N(C)c2ccnc3ccc(C(F)(F)F)cc23)cc(OC)c1OC` here?
Answer: 90%

Question: With `Nc1cnc(N2CCc3cc(S(=O)(=O)Nc4c(F)cc(Cl)cc4F)cc(N4CCCC4=O)c32)nc1` [TP-020n] as the molecule, how does the % of control [3] read?
Answer: 100%

Question: How did the dTM [4] turn out when `CN(C(=O)c1cnn2cccnc12)c1cc2c(cc1N1CCOCC1)C(=O)N(C[C@@H](F)C(C)(C)O)C2` was run?
Answer: -0.9 K

Question: Which % of control [5] does the source give for `O[C@H]1CC[C@H](Nc2ncc3nc(Nc4c(F)cc(F)cc4F)n([C@H]4CCOC4)c3n2)CC1` here?
Answer: 100%

Question: With `Cc1cc([C@@H](C)Nc2ccccc2C(=O)O)c2nc(N3CCOCC3)cc(=O)n2c1` [AZD-6482] as the molecule, how does the % of control [6] read?
Answer: 94%

Question: Which % of control [7] does the source give for `CN(C)CCOc1ccc(-c2nc(-c3ccncc3)c(-c3ccc4c(c3)CC/C4=N\O)[nH]2)cc1` here?
Answer: 7%
